Source: BindingDB's records for doi:10.1021/jm00051a016 (University of Michigan, 1995)
pIC50, pKi: −log10 of the molar value.

Tests used:
Mu-type opioid receptor [1] = target: T1, Mu-type opioid receptor (Cavia porcellus, UniProt P97266); test: Agonist activity was assessed in an guinea pig ileum (GPI) smooth muscle bioassay
Mu-type opioid receptor [2] = target: T1, Mu-type opioid receptor; test: Binding affinity against mu opioid receptor using [3H]DAMGO in guinea pig ileum

T1 sequence (P97266 whole entry): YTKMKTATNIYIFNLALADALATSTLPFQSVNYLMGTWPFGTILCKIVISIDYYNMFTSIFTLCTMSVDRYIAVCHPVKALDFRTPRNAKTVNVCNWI

`CN1C(=O)[C@H](CS)N(C(=O)[C@@H](N)Cc2ccc(O)cc2)C(=O)[C@@H](C(C)(C)S)NC(=O)[C@@H]1Cc1ccccc1` [4-[2-Amino-3-(4-hydroxy-phenyl)-propionyl]-9-benzyl-3-mercaptomethyl-6-(1-mercapto-1-methyl-ethyl)-1-methyl-[1,4,7]triazonane-2,5,8-trione] was tested. Which pIC50 (Mu-type opioid receptor [1]) did it give?
The pIC50 was under 4.52.

What about the pKi (Mu-type opioid receptor [2]) of the same compound?
The pKi was under 5.00.
